Laboratory results taken from paper PMC7279249, “Synthesis of Fmoc-Triazine Amino Acids and Its Application in the Synthesis of Short Antibacterial Peptidomimetics” (International Journal of Molecular Sciences, 2020).
In brackets after ≈: the same amount, converted by molar mass. Like-named read-outs stand apart in the source and are kept apart here. Peptide text beside a SMILES is read from it.

How the values were obtained:
[1] = Analytical RP-HPLC retention time; assay type: physicochemical; settings: C18 4.6 mm × 250 mm, 0.05% aq. TFA (A) / 0.05% TFA in CH3CN (B), 5% to 95% B in 30 min, 1.0 mL/min, 25 °C, 280 nm, method A of the Supplementary Material
Protocol: As described previously, all reactions were performed under argon atmosphere in flame-dried glassware using dry solvents unless otherwise noted. Anhydrous organic solvents of purity greater than 99.9% were purchased from Aldrich and used directly in the reaction. All reagents and some of the starting materials were purchased from commercial chemical suppliers, including Sigma-Aldrich, TCI, and Across Organics and used as received. Analytical thin-layer chromatography (TLC) was performed on Merck aluminum sheets with silica gel 60 F254 using 0.25 mm plates, and was visualized by ultraviolet light, staining with KMnO4 and ninhydrin. Column chromatography purification was performed on Merck silica gel 60 (70–230 mesh or 230–400 mesh). Bruker DRX-400 and DRX-500 NMR spectrometer were used for recording ^1H and ^13C NMR spectra. NMR chemical shifts (δ) are denoted in parts per million (ppm), and coupling constants (J) are given in hertz (Hz). MALDI-TOF mass was recorded using Shimadzu mass spectrometer. The crude peptidomimetics and peptides were purified by reverse-phase high-performance liquid chromatography (RP-HPLC) on Agilent HPLC system equipped with a C18 semi-preparative column (250 mm × 22 mm, 10 μm) using 0.05% aq. trifluoroacetic acid (TFA) (eluent A) and 0.05% TFA in CH3CN (eluent B) were used with a flow rate of 5.0 mL/min at 25 °C, under wavelength 280 nm. Moreover, the purity of the peptide judged to be ≥ 95% pure by analytical HPLC equipped with a C18 column (4.6 mm× 250 mm, 10 μm). Two different linear gradients of 0.05% aq. TFA (eluent A) and 0.05% TFA in CH3CN (eluent B) (gradient method, 5% of eluent B to 95% of Eluent B in 30 min; injection volume, 10 µL; concentration 10 µmol) were used with a flow rate of 1.0 mL/min at 25 °C, under wavelength 280 nm.

[2] = system: Staphylococcus aureus (KCTC 1621)
Protocol: (§1) The bacterial cells were grown overnight for 18 h at 37 °C in 10 mL of Mueller Hinton broth (MHB). The 10 μL of this culture was inoculated into 10 mL of fresh MHB and incubated for an additional 3 h at 37 °C to obtain mid-logarithmic phase organisms. Aliquots (100 μL) of bacterial cell suspension at 4 × 10^6 CFU/mL in 1% peptone were added to 100 μL of the sample solutions (serial 2-fold dilutions in 1% peptone). […] The MIC values were determined after 18 h of incubation.

[3] = system: Staphylococcus epidermidis (KCTC 1917)
Protocol: as §1

E. coli (KCTC 1682) = system: E. coli (KCTC 1682)
Protocol: as §1

[4] = system: P. aeruginosa (KCTC 1637)
Protocol: as §1

[5] = system: trypsin (read-out E. coli KCTC 1682); assay type: in vitro ADME
Protocol: (§2) Digestion of the BJK-4 and melittin by trypsin was carried out using 100 μg/mL peptide and 0.4 μg/mL trypsin in PBS, at 37 °C for 2 h. The reaction solution (50 μL) was added to 150 μL of a bacterial suspension (2 × 10^6 CFU/mL in Mueller-Hinton broth). After incubation at 37 °C for 18 h, the bacterial growth inhibition was determined by measuring absorbance at 600 nm with a microplate ELISA reader (Bio-Tek; EL 800).

[6] = system: trypsin (read-out S. aureus KCTC 1621); assay type: in vitro ADME
Protocol: as §2

[7] = Gram-positive, serial 2-fold dilutions in 1% peptone, 1 to […], 18 h incubation, lowest concentration causing 100% inhibition of growth (no visible turbidity)
[8] = Gram-negative, serial 2-fold dilutions in 1% peptone, 1 to […], 18 h incubation, lowest concentration causing 100% inhibition of growth (no visible turbidity)

CC(=O)NCCNc1nc(NCC(N)=O)nc(N(CCCN)CCCN)n1 [BJK-1]
Rt, HPLC retention time [1]: 8.8 min | MIC, Staphylococcus aureus (KCTC 1621) ([2]; KCTC 1621, 18 h): >128 µg/mL | MIC, Staphylococcus epidermidis (KCTC 1917) ([3]; KCTC 1917, 18 h): >128 µg/mL | MIC, E. coli (KCTC 1682) (E. coli (KCTC 1682); KCTC 1682, 18 h): 128 µg/mL (≈ 335 µM) | MIC, P. aeruginosa (KCTC 1637) ([4]; KCTC 1637, 18 h): 128 µg/mL (≈ 335 µM)

CC(=O)NCCNc1nc(NCC(N)=O)nc(N(Cc2ccccc2)Cc2ccccc2)n1 [BJK-2]
Rt, HPLC retention time [1]: 21.8 min | MIC, Staphylococcus aureus (KCTC 1621) ([2]; KCTC 1621, 18 h): >128 µg/mL | MIC, Staphylococcus epidermidis (KCTC 1917) ([3]; KCTC 1917, 18 h): >128 µg/mL | MIC, E. coli (KCTC 1682) (E. coli (KCTC 1682); KCTC 1682, 18 h): >128 µg/mL | MIC, P. aeruginosa (KCTC 1637) ([4]; KCTC 1637, 18 h): >128 µg/mL

CC(=O)NCCNc1nc(NCC(=O)NCCNc2nc(NCC(N)=O)nc(N(Cc3ccccc3)Cc3ccccc3)n2)nc(N(CCCN)CCCN)n1 [BJK-3]
MIC, Staphylococcus aureus (KCTC 1621) ([2]; KCTC 1621, 18 h): 32 µg/mL (≈ 41.5 µM) | MIC, Staphylococcus epidermidis (KCTC 1917) ([3]; KCTC 1917, 18 h): 32 µg/mL (≈ 41.5 µM) | MIC, E. coli (KCTC 1682) (E. coli (KCTC 1682); KCTC 1682, 18 h): 64 µg/mL (≈ 82.9 µM) | MIC, P. aeruginosa (KCTC 1637) ([4]; KCTC 1637, 18 h): 32 µg/mL (≈ 41.5 µM)

CC(=O)NCCNc1nc(NCC(=O)NCCNc2nc(NCC(=O)NCCNc3nc(NCC(N)=O)nc(N(CCCN)CCCN)n3)nc(N(Cc3ccccc3)Cc3ccccc3)n2)nc(N(CCCN)CCCN)n1 [BJK-4]
Antimicrobial activity against E. coli after trypsin treatment [5]: nearly preserved | Antimicrobial activity against S. aureus after trypsin treatment [6]: nearly preserved | MIC, Staphylococcus aureus (KCTC 1621) ([2]; KCTC 1621, 18 h): 16 µg/mL (≈ 14.6 µM) | MIC, Staphylococcus epidermidis (KCTC 1917) ([3]; KCTC 1917, 18 h): 16 µg/mL (≈ 14.6 µM) | MIC, E. coli (KCTC 1682) (E. coli (KCTC 1682); KCTC 1682, 18 h): 16 µg/mL (≈ 14.6 µM) | MIC, P. aeruginosa (KCTC 1637) ([4]; KCTC 1637, 18 h): 16 µg/mL (≈ 14.6 µM)

CC(=O)NCCNc1nc(NCC(=O)NCCNc2nc(NCC(=O)NCCNc3nc(NCC(N)=O)nc(N(Cc4ccccc4)Cc4ccccc4)n3)nc(N(CCCN)CCCN)n2)nc(N(Cc2ccccc2)Cc2ccccc2)n1 [BJK-5]
Rt, HPLC retention time [1]: 21.1 min | MIC, Staphylococcus aureus (KCTC 1621) ([2]; KCTC 1621, 18 h): 64 µg/mL (≈ 55.1 µM) | MIC, Staphylococcus epidermidis (KCTC 1917) ([3]; KCTC 1917, 18 h): 64 µg/mL (≈ 55.1 µM) | MIC, E. coli (KCTC 1682) (E. coli (KCTC 1682); KCTC 1682, 18 h): 128 µg/mL (≈ 110 µM) | MIC, P. aeruginosa (KCTC 1637) ([4]; KCTC 1637, 18 h): 32 µg/mL (≈ 27.6 µM)

CC(=O)NCCNc1nc(NCC(=O)NCCNc2nc(NCC(=O)NCCNc3nc(NCC(=O)NCCNc4nc(NCC(N)=O)nc(N(Cc5ccccc5)Cc5ccccc5)n4)nc(N(CCCN)CCCN)n3)nc(N(Cc3ccccc3)Cc3ccccc3)n2)nc(N(CCCN)CCCN)n1 [BJK-6]
MIC, Staphylococcus aureus (KCTC 1621) [2, 7]: 16 µg/mL (≈ 10.8 µM) | MIC, Staphylococcus epidermidis (KCTC 1917) [3, 7]: 16 µg/mL (≈ 10.8 µM) | MIC, E. coli (KCTC 1682) (E. coli (KCTC 1682); [8]): 16 µg/mL (≈ 10.8 µM) | MIC, P. aeruginosa (KCTC 1637) [4, 8]: 16 µg/mL (≈ 10.8 µM)

CC(=O)N[C@@H](CCCCN)C(=O)N[C@@H](Cc1c[nH]c2ccccc12)C(N)=O [BJK-7] (Ac-Lys-Trp-NH2)
Rt, HPLC retention time [1]: 15.4 min | MIC, Staphylococcus aureus (KCTC 1621) ([2]; KCTC 1621, 18 h): >128 µg/mL | MIC, Staphylococcus epidermidis (KCTC 1917) ([3]; KCTC 1917, 18 h): >128 µg/mL | MIC, E. coli (KCTC 1682) (E. coli (KCTC 1682); KCTC 1682, 18 h): 128 µg/mL (≈ 343 µM) | MIC, P. aeruginosa (KCTC 1637) ([4]; KCTC 1637, 18 h): 128 µg/mL (≈ 343 µM)

CC(=O)N[C@@H](CCCCN)C(=O)N[C@@H](Cc1c[nH]c2ccccc12)C(=O)N[C@@H](CCCCN)C(N)=O [BJK-8] (Ac-Lys-Trp-Lys-NH2)
Rt, HPLC retention time [1]: 14.2 min | MIC, Staphylococcus aureus (KCTC 1621) ([2]; KCTC 1621, 18 h): >128 µg/mL | MIC, Staphylococcus epidermidis (KCTC 1917) ([3]; KCTC 1917, 18 h): >128 µg/mL | MIC, E. coli (KCTC 1682) (E. coli (KCTC 1682); KCTC 1682, 18 h): 64 µg/mL (≈ 128 µM) | MIC, P. aeruginosa (KCTC 1637) ([4]; KCTC 1637, 18 h): 128 µg/mL (≈ 255 µM)

CC(=O)N[C@@H](Cc1c[nH]c2ccccc12)C(=O)N[C@@H](CCCCN)C(=O)N[C@@H](Cc1c[nH]c2ccccc12)C(N)=O [BJK-9] (Ac-Trp-Lys-Trp-NH2)
Rt, HPLC retention time [1]: 19.6 min | MIC, Staphylococcus aureus (KCTC 1621) ([2]; KCTC 1621, 18 h): >128 µg/mL | MIC, Staphylococcus epidermidis (KCTC 1917) ([3]; KCTC 1917, 18 h): >128 µg/mL | MIC, E. coli (KCTC 1682) (E. coli (KCTC 1682); KCTC 1682, 18 h): >128 µg/mL | MIC, P. aeruginosa (KCTC 1637) ([4]; KCTC 1637, 18 h): >128 µg/mL

CC(=O)N[C@@H](CCCCN)C(=O)N[C@@H](Cc1c[nH]c2ccccc12)C(=O)N[C@@H](CCCCN)C(=O)N[C@@H](Cc1c[nH]c2ccccc12)C(N)=O [BJK-10] (Ac-KWKW-NH2)
Rt, HPLC retention time [1]: 17.9 min | MIC, Staphylococcus aureus (KCTC 1621) [2, 7]: >128 µg/mL | MIC, Staphylococcus epidermidis (KCTC 1917) [3, 7]: >128 µg/mL | MIC, E. coli (KCTC 1682) (E. coli (KCTC 1682); [8]): >128 µg/mL | MIC, P. aeruginosa (KCTC 1637) [4, 8]: >128 µg/mL

CC[C@H](C)[C@H](NC(=O)CN)C(=O)NCC(=O)N[C@@H](C)C(=O)N[C@H](C(=O)N[C@@H](CC(C)C)C(=O)N[C@@H](CCCCN)C(=O)N[C@H](C(=O)N[C@@H](CC(C)C)C(=O)N[C@H](C(=O)N[C@H](C(=O)NCC(=O)N[C@@H](CC(C)C)C(=O)N1CCC[C@H]1C(=O)N[C@@H](C)C(=O)N[C@@H](CC(C)C)C(=O)N[C@H](C(=O)N[C@@H](CO)C(=O)N[C@@H](Cc1c[nH]c2ccccc12)C(=O)N[C@H](C(=O)N[C@@H](CCCCN)C(=O)N[C@@H](CCCNC(=N)N)C(=O)N[C@@H](CCCCN)C(=O)N[C@@H](CCCNC(=N)N)C(=O)N[C@@H](CCC(N)=O)C(=O)N[C@@H](CCC(N)=O)C(N)=O)[C@@H](C)CC)[C@@H](C)CC)[C@@H](C)O)[C@@H](C)O)C(C)C)C(C)C [melittin, reference compound]
Antimicrobial activity against E. coli after trypsin treatment ([5]; 100 μg/mL peptide, 0.4 μg/mL trypsin in PBS, 37 °C, 2 h, then E. coli KCTC 1682 in Mueller-Hinton broth, 18 h at 37 °C, absorbance 600 nm): completely abolished | Antimicrobial activity against S. aureus after trypsin treatment ([6]; 100 μg/mL peptide, 0.4 μg/mL trypsin in PBS, 37 °C, 2 h, then S. aureus KCTC 1621 in Mueller-Hinton broth, 18 h at 37 °C, absorbance 600 nm): completely abolished
